Patent US9187790B2, “Saccharification of lignocellulosic biomass” (priority 2012, dated 2015)
Structures can show the parent of a compound that is named as a salt. Where two headings read alike, the source gives them in different places.

Legend:
[1] = for Conversion: 1 ml H2O, 1500 mg LiBr, 100 mg spruce powder, 2 mg acid, 140° C., 30 min
[2] = Extraction of CaBr2 from CaBr2-glucose solution with n-butanol/hexane; assay type: physicochemical
Protocol: As mentioned above, CaBr2 can work as effectively as LiBr to hydrolyze lignocellulosic biomass. CaBr2 was extracted from glucose with the butanol extraction method as described above (A). […] More than half of the initial glucose was extracted to the solvent phase. […] Only 10 mg glucose was extracted into 5:5 butanol/hexane.

Saccharomyces cerevisiae = assay: Glucose fermentation to ethanol in the presence of residual salt; assay type: cell-based
Excerpt: Complete separation of LiBr from sugars is difficult and expensive. Small amounts of LiBr or CaBr2 may be retained in the sugar product stream generated by the processes of this invention. If the sugars are intended for use for fermentation, the residual salt could potentially affect the fermentation. […]

[3] = Hydrolysis of biomass in concentrated solutions of different salts; conditions: for conversion/hydrolysis of polysaccharides (in words): concentration of salt 60%
Excerpt: Hydrolysis of biomass in different metal halide solutions was investigated.

[4] = Extraction of LiBr from LiBr-glucose solution with n-butanol/hexane; assay type: physicochemical; parameters: Glucose retained/extraction steps: unit not given here; conditions: for LiBr content left in the LiBr-glucose solution: butanol to hexane 7:3; for LiBr extracted / LiBr/sugar (separation efficiency) / Glucose extracted: organic phase from the 1st extraction; for glucose extracted into the butanol phase: butanol to hexane ratio 7/3; for Glucose retained after extraction: 200 mg glucose and 1500 mg LiBr in 1 mL water
Excerpt: A LiBr-glucose solution was first used to test the butanol extraction.

[5] = Solubility in water and organic solvent; assay type: physicochemical; conditions: 60% salt in water
Excerpt: After the extraction, any small amount of LiBr in the sugar stream can be removed by means of ion exchange resin, crystallization, precipitation with anti-solvent, and precipitation with sodium carbonate, as described in Examples herein.

[6] = cited from earlier work
[7] = Crystallization/precipitation of glucose by ethanol; assay type: physicochemical; conditions: 400 mg glucose, 2 mL ethanol, 120° C. then cooled to room temperature
Protocol: Glucose was dissolved in ethanol by heating to 120° C. to facilitate dissolution. The resulting clear solution was then cooled to room temperature with stirring to allow sugar crystallization (or precipitation). Precipitated glucose was filtered and washed with ethanol. However, a small amount of glucose was found dissolved in ethanol, and therefore glucose was not fully recovered. […] The same crystallization operation was carried out as for pure glucose above. […] Almost all other sugars and LiBr were however retained in the ethanol. […] In addition, xylose may negatively affect the crystallization of glucose.

[8] = over the investigated concentrations (0 to 5% w/v)
[9] = salt concentration 2% (w/v), FIG. 9A
[10] = butanol:hexane 5:5 (v/v), 15 extraction steps
[11] = butanol:hexane 6:4 (v/v), 13 extraction steps
[12] = butanol:hexane 6.5:3.5 (v/v), 12 extraction steps
[13] = butanol:hexane 7:3 (v/v), 10 extraction steps
[14] = butanol:hexane 7.5:2.5 (v/v), 9 extraction steps
[15] = butanol:hexane 8:2 (v/v), 9 extraction steps
[16] = butanol:hexane 8.5:1.5 (v/v), 8 extraction steps
[17] = butanol:hexane 9:1 (v/v), 7 extraction steps
[18] = butanol:hexane 10:0 (v/v), 6 extraction steps

## CC(=O)O [CH3COOH, acetic acid]
[1]
  Conversion: 90%

## [Br-].[Br-].[Ca+2] [CaBr2]
[2]; butanol/hexane 5:5, 30 extractions, from 1500 mg
  CaBr2 left in the solution: 70 mg
Saccharomyces cerevisiae; compared with LiBr, FIG. 8
  ethanol yield: higher
Saccharomyces cerevisiae; [8]
  inhibition on sugar fermentation: generally less inhibitory
Saccharomyces cerevisiae; [9]
  inhibition on sugar fermentation: more inhibitory than NaCl and CaCl2
Saccharomyces cerevisiae; salt concentration 5% (w/v)
  inhibition on sugar fermentation: Inhibition became more significant
[3]
  conversion/hydrolysis of polysaccharides (in words): complete conversion/hydrolysis

## [Ca+2].[Cl-].[Cl-] [CaCl2, calcium chloride, reference compound]
Saccharomyces cerevisiae; [8]
  inhibition on sugar fermentation: does not appear to be inhibitory
[3]
  Conversion: 70%

## O=P(O)(O)O [H3PO4, phosphoric acid]
[1]
  Conversion: 95%

## Cl [HCl, hydrochloric acid]
[1]
  Conversion: 100%

## O=[N+]([O-])O [HNO3, nitric acid]
[1]
  Conversion: 100%
[1]; 60% LiBr solution
  effectiveness in catalyzing the hydrolysis of spruce (in words): as effective as hydrochloric acid

## [Br-].[Li+] [LiBr, Lithium bromide]
[4]; after 10 extractions, from 1500 mg
  LiBr content left in the LiBr-glucose solution: 250 mg
[4]; after 20 extractions
  LiBr content left in the LiBr-glucose solution: 50 mg
[4]; after 30 extractions
  LiBr content left in the LiBr-glucose solution: 30 mg
[4]; butanol:hexane 5:5
  LiBr extracted: 141 mg
  LiBr/sugar (separation efficiency): 71
[4]; butanol:hexane 6:4
  LiBr extracted: 152 mg
  LiBr/sugar (separation efficiency): 51
[4]; butanol:hexane 6.5:3.5
  LiBr extracted: 195 mg
  LiBr/sugar (separation efficiency): 49
[4]; butanol:hexane 7:3
  LiBr extracted: 216 mg
  LiBr/sugar (separation efficiency): 48
[4]; butanol:hexane 7.5:2.5
  LiBr extracted: 231 mg
  LiBr/sugar (separation efficiency): 46
[4]; butanol:hexane 8:2
  LiBr extracted: 252 mg
  LiBr/sugar (separation efficiency): 46
[4]; butanol:hexane 8.5:1.5
  LiBr extracted: 277 mg
  LiBr/sugar (separation efficiency): 40
[4]; butanol:hexane 9:1
  LiBr extracted: 310 mg
  LiBr/sugar (separation efficiency): 26
[4]; butanol:hexane 10:0
  LiBr extracted: 383 mg
  LiBr/sugar (separation efficiency): 19
Saccharomyces cerevisiae; [9]
  inhibition on sugar fermentation: more inhibitory than NaCl and CaCl2
Saccharomyces cerevisiae; salt concentration 5% (w/v)
  inhibition on sugar fermentation: the inhibition was significant
Saccharomyces cerevisiae; salt concentration below 5% (w/v), FIG. 7
  inhibition on sugar fermentation: did not have significant inhibition
[3]
  Conversion: 100%
  conversion/hydrolysis of polysaccharides (in words): complete conversion/hydrolysis

## [Cl-].[Li+] [LiCl, reference compound]
[5]
  temperature at which the solution starts crystallizing: 120 °C
[3]
  conversion/hydrolysis of polysaccharides (in words): complete conversion/hydrolysis

## [Cl-].[Na+] [NaCl, reference compound]
Saccharomyces cerevisiae; salt concentration 5% (w/v)
  inhibition on sugar fermentation: showed inhibition similar to LiBr

## O=C[C@H](O)[C@@H](O)[C@H](O)[C@H](O)CO [glucose]
[2]; butanol/hexane 5:5, 30 extractions
  glucose extracted into butanol/hexane: 10 mg
[2]; butanol/hexane 5:5, 30 extractions, from 200 mg
  glucose left in the solution: 190 mg
[2]; butanol/hexane 7:3, 10 extractions, 1500 mg CaBr2, 1 mL water, 200 mg glucose
  glucose left in the aqueous phase: approximately 95 mg
[6]
  solubility in n-butanol (in words): insoluble
[7]; Entry 0: LiBr 0 mg, water 0 μL
  Precipitated glucose: 400 mg
[7]; Entry 1: LiBr 50 mg, water 30 μL
  Precipitated glucose: 330 mg
[7]; Entry 2: LiBr 50 mg, water 50 μL
  Precipitated glucose: 330 mg
[7]; Entry 3: LiBr 50 mg, water 100 μL
  Precipitated glucose: 330 mg
[7]; Entry 4: LiBr 50 mg, water 150 μL
  Precipitated glucose: 330 mg
[7]; Entry 5: LiBr 100 mg, water 150 μL
  Precipitated glucose: 320 mg
[7]; Entry 6: LiBr 150 mg, water 150 μL
  Precipitated glucose: 300 mg
[7]; Entry 7: LiBr 200 mg, water 150 μL
  Precipitated glucose: 250 mg
[4]
  glucose extracted into the butanol phase: about 10%
[4]; out of 320 mg glucose
  glucose extracted into the butanol phase: ~30 mg
[4]; [10]
  Glucose retained/extraction steps: 12.6
  Glucose retained after extraction: 190 mg
[4]; butanol:hexane 5:5
  Glucose extracted: 2 mg
[4]; [11]
  Glucose retained/extraction steps: 14.5
  Glucose retained after extraction: 189 mg
[4]; butanol:hexane 6:4
  Glucose extracted: 3 mg
[4]; [12]
  Glucose retained/extraction steps: 16
  Glucose retained after extraction: 187 mg
[4]; butanol:hexane 6.5:3.5
  Glucose extracted: 4 mg
[4]; [13]
  Glucose retained/extraction steps: 18.5
  Glucose retained after extraction: 185 mg
[4]; butanol:hexane 7:3
  Glucose extracted: 4.5 mg
[4]; [14]
  Glucose retained/extraction steps: 19.4
  Glucose retained after extraction: 175 mg
[4]; butanol:hexane 7.5:2.5
  Glucose extracted: 5 mg
[4]; [15]
  Glucose retained/extraction steps: 17.8
  Glucose retained after extraction: 160 mg
[4]; butanol:hexane 8:2
  Glucose extracted: 5.5 mg
[4]; [16]
  Glucose retained/extraction steps: 17.5
  Glucose retained after extraction: 140 mg
[4]; butanol:hexane 8.5:1.5
  Glucose extracted: 7 mg
[4]; [17]
  Glucose retained/extraction steps: 16.5
  Glucose retained after extraction: 115 mg
[4]; butanol:hexane 9:1
  Glucose extracted: 12 mg
[4]; [18]
  Glucose retained/extraction steps: 16
  Glucose retained after extraction: 95 mg
[4]; butanol:hexane 10:0
  Glucose extracted: 20 mg
